Several values for one entry are separate records, joined by “and”; a condition that tells them apart may be missing. Equal values may be shown once.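 48-hour exposure; five concentrations; linearly interpolated endpoints. GI50: concentration for 50% inhibition of growth. TGI is the concentration that stops growth completely.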
Key:
Test in all cases: NCI anticancer screen, dose series, 48 h
SN12C renal = test system: SN12C renal
KM12 colon = test system: KM12 colon
SK-MEL-5 melanoma = test system: SK-MEL-5 melanoma
HT29 colon = test system: HT29 colon
SF-539 CNS = test system: SF-539 CNS
M14 melanoma = test system: M14 melanoma
HCT-116 colon = test system: HCT-116 colon
MOLT-4 leukemia = test system: MOLT-4 leukemia
NCI/ADR-RES ovarian = test system: NCI/ADR-RES ovarian
MDA-MB-435 = test system: MDA-MB-435
MCF7 breast = test system: MCF7 breast
NCI-H226 lung = test system: NCI-H226 lung
MDA-MB-231 breast = test system: MDA-MB-231 breast
SR leukemia = test system: SR leukemia
CCRF-CEM leukemia = test system: CCRF-CEM leukemia

SMILES	TGI (SN12C renal) [µM]	TGI (KM12 colon) [µM]	TGI (SK-MEL-5 melanoma) [µM]	TGI (HT29 colon) [µM]	TGI (SF-539 CNS) [µM]	TGI (M14 melanoma) [µM]	TGI (HCT-116 colon) [µM]	TGI (MOLT-4 leukemia) [µM]	TGI (NCI/ADR-RES ovarian) [µM]	TGI (MDA-MB-435) [µM]	TGI (MCF7 breast) [µM]	TGI (NCI-H226 lung) [µM]	TGI (MDA-MB-231 breast) [µM]	TGI (SR leukemia) [µM]	TGI (CCRF-CEM leukemia) [µM]	GI50 (SK-MEL-5 melanoma)	GI50 (HT29 colon)	GI50 (MOLT-4 leukemia)	GI50 (NCI-H226 lung)
O=[N+]([O-])c1cccc2nnccc12	> 100	> 100	27	53.6	> 100	> 100	29.4	> 100	> 100	32.5	> 100	58							
COc1cc2c(cc1OC)C1C=NC(C2)c2cc(OC)c(OC)cc21 (centres undefined)	> 100	> 100	> 100	> 100	> 100	> 100	> 100	> 100	> 100	> 100	> 100	> 100	> 100	> 100					
COc1c(F)c(F)c(/C(O)=C\c2nc3ccccc3[nH]c2=O)c(F)c1F	> 10	> 10	> 10	> 10		> 10		> 10		> 10	> 10		> 10	> 10	> 10				
C=CC[C@@H](N)C(=O)N(C)[C@@H](C)[C@@H](O)c1ccccc1		> 100	> 100		> 100	> 100	> 100	> 100	> 100	> 100		> 100	> 100		> 100				
CC1=NC(=Cc2cccc(Cl)c2)C(=O)N1n1c(-c2ccccc2)nc2ccccc2c1=O	> 100	> 100	> 100	94.8	> 100	> 100	> 100	98.3		> 100	55.3	> 100	> 100	63.5	> 100				
O=C1CCCN1C(=O)CS(=O)(=O)c1ccccc1	> 100	> 100	> 100	> 100		> 100	> 100	> 100	> 100	> 100		> 100	> 100	> 100	> 100				
CN(C)c1ccc(NN=C2SC(=Nc3ccccc3)C(=Nc3ccccc3)S2)cc1	> 100	> 100	> 100	> 100	> 100		> 100	> 100	> 100	> 100		> 100			> 100				
COc1ccc(CC2(O)C3CC4CCC2C4C3)cc1 (centres undefined)	> 100	> 100	> 100	> 100		> 100		> 100	> 100	> 100	> 100	> 100		> 100	> 100				
CCOC(=O)C1=NOC2(C=C(Br)C(=O)C(Br)=C2)C1	19.6	29.7	21.7	4.68	20.2	3.29	2.63	0.304	> 26.6	3.49	11.1	52.9	21.9						
COc1cccc(NC(=O)CSc2nnc(-c3ccc(NC(C)=O)cc3)o2)c1	> 100	> 100	> 100	> 100		> 100	> 100	> 100				> 100		> 100	> 100				
CCCCCCCOc1ccc(/C=C\c2cc[n+](CCCCCCCC[n+]3ccc(/C=C\c4ccc(OCCCCCCC)cc4)cc3)cc2)cc1	57	28.2	27.7	28.7	> 100	34.5	26.5	62.2							> 100				
c1ccc2c(c1)C1CCCCCC21N1CCOCC1 (centres undefined)	> 100	> 100	> 100	> 100	> 100	> 100	> 100	> 100				> 100			> 100				
O=C(CSc1nnc(Cc2ccccc2)o1)Nc1ccccc1	> 100	> 100	> 100	> 100	> 100	> 100	> 100	> 100				> 100			> 100				
O=C(NNCC(O)COc1ccccc1)c1ccccc1 (centres undefined)	> 100	> 100	> 100	> 100	> 100	> 100	> 100	> 100	> 100	> 100	> 100	> 100	> 100		> 100				
COC(=O)[C@@H]1CC(C(C[N+](=O)[O-])c2ccc(O[Si](C)(C)C(C)(C)C)cc2)C(=O)N1C(=O)OC(C)(C)C (some centres undefined)	> 100	> 100	> 100	> 100	> 100	> 100	> 100	> 100		> 100	> 100	> 100	> 100	> 100	> 100	> 100 µM and 39.9 µM	> 100 µM and 47.8 µM	14.4 µM and 31.4 µM	12.6 µM and 35 µM
CCN1CCC(C)OP1(=O)Cc1ccccc1 (centres undefined)		> 100	> 100	> 100	> 100	> 100	> 100		> 100	> 100	> 100	> 100	> 100	> 100					
N#CC1C(=O)NC23CCCCC2C1c1ccccc1O3 (centres undefined)		> 100	> 100	> 100		> 100	> 100	> 100	> 100	> 100	> 100	> 100	> 100		> 100				
O=C(NC1=C(Cl)C(=O)c2ccccc2C1=O)c1ccc(F)cc1	14.5	12.5		11.5	18.7	12.5	10.6	7.13	14.8	14.2	17.1	8.37	18.9	> 100					

From PubChem BioAssay (NCI)
